Experimental data: PubChem BioAssay AID344 (DTP/NCI, 2004)
Inconclusive results and toxic doses are left out.

System: mice, LPC-1 plasma cell tumor ip, median survival T/C
Assay: NCI In Vivo Anticancer Drug Screen. Data for tumor model Lieberman Plasma Cell No. 1 (LPC-1) (intraperitoneal) in unknown mice
Settings: endpoint: median survival time, higher = longer survival
Protocol: The antitumor activity of compounds was measured in mice bearing transplantable tumors. Survival or tumor size were measured and the results are expressed as the measurement made in the treated group (T) divided by the measurement made in the vehicle treated control group (C). The tumor model used in this assay is Lieberman Plasma Cell No. 1 (LPC-1) (intraperitoneal) in unknown mice

SMILES: CS(=O)(=O)OCCN(CCOS(C)(=O)=O)c1ccc(C=Nc2ccc3oc(=O)ccc3c2)cc1
- T/C (dose: 3.5 mg/kg/injection, schedule: Q01DX Z (sc), vehicle: carboxymethylcellulose (CMC)): 166 % of control
- T/C (dose: 3.8 mg/kg/injection, schedule: Q01DX028 (sc), vehicle: steriod suspending solution): 165 % of control
- T/C (dose: 7.0 mg/kg/injection, schedule: Q01DX Z (sc), vehicle: carboxymethylcellulose (CMC)): 177 % of control
- T/C (dose: 7.5 mg/kg/injection, schedule: Q01DX028 (sc), vehicle: steriod suspending solution): 188 % of control
- T/C (dose: 14.0 mg/kg/injection, schedule: Q01DX Z (sc), vehicle: carboxymethylcellulose (CMC)): 216 % of control
- T/C (dose: 15.0 mg/kg/injection, schedule: Q01DX028 (sc), vehicle: steriod suspending solution): 250 % of control
- T/C (dose: 28.0 mg/kg/injection, schedule: Q01DX Z (sc), vehicle: carboxymethylcellulose (CMC)): 161 % of control
- T/C (dose: 30.0 mg/kg/injection, schedule: Q01DX028 (sc), vehicle: steriod suspending solution): 230 % of control

SMILES: CC[C@H]1CN2CCc3cc(OC)c(OC)cc3[C@@H]2C[C@@H]1C[C@H]1NCCc2cc(OC)c(OC)cc21
- T/C (dose: 1.0 mg/kg/injection, schedule: Q01DX028 (sc), vehicle: saline): 106 % of control
- T/C (dose: 2.0 mg/kg/injection, schedule: Q01DX028 (sc), vehicle: saline): 106 % of control
- T/C (dose: 4.0 mg/kg/injection, schedule: Q01DX028 (sc), vehicle: saline): 94 % of control

SMILES: CN(C)c1ccc(/C=C/c2ccnc3ccccc23)cc1
- T/C (dose: 2.0 mg/kg/injection, schedule: Q01DX028 (sc), vehicle: carboxymethylcellulose (CMC)): 95 % of control
- T/C (dose: 4.0 mg/kg/injection, schedule: Q01DX028 (sc), vehicle: carboxymethylcellulose (CMC)): 100 % of control
- T/C (dose: 8.0 mg/kg/injection, schedule: Q01DX028 (sc), vehicle: carboxymethylcellulose (CMC)): 95 % of control
- T/C (dose: 16.0 mg/kg/injection, schedule: Q01DX028 (sc), vehicle: carboxymethylcellulose (CMC)): 92 % of control
- T/C (dose: 23.0 mg/kg/injection, schedule: Q01DX028 (sc), vehicle: carboxymethylcellulose (CMC)): 105 % of control
- T/C (dose: 32.0 mg/kg/injection, schedule: Q01DX028 (sc), vehicle: carboxymethylcellulose (CMC)): 100 % of control
- T/C (dose: 39.0 mg/kg/injection, schedule: Q01DX028 (sc), vehicle: carboxymethylcellulose (CMC)): 97 % of control
- T/C (dose: 65.0 mg/kg/injection, schedule: Q01DX028 (sc), vehicle: carboxymethylcellulose (CMC)): 100 % of control
- T/C (dose: 108.0 mg/kg/injection, schedule: Q01DX028 (sc), vehicle: carboxymethylcellulose (CMC)): 95 % of control
- T/C (dose: 180.0 mg/kg/injection, schedule: Q01DX028 (sc), vehicle: carboxymethylcellulose (CMC)): 95 % of control

SMILES: Cc1cc(N(CCCl)CCCl)ccc1C=Nc1ccccc1-c1ccccc1
- T/C (dose: 23.0 mg/kg/injection, schedule: Q01DX015 (sc), vehicle: carboxymethylcellulose (CMC)): 92 % of control
- T/C (dose: 180.0 mg/kg/injection, schedule: Q01DX015 (sc), vehicle: carboxymethylcellulose (CMC)): 102 % of control
